According to patent US4229204A, “Trifluoromethylphenyl isoxazolyl benzoates” (Monsanto Company, priority 1978, dated 1980):

What was measured:
Format in all cases: in vivo
Crabgrass = assay: Pre-emergent herbicidal test; details: 2 WAT
Protocol: (§1) The pre-emergent test was conducted as follows:
(§2) A good grade of top soil was placed in aluminum pans and compacted to a depth of three-eighths to one-half inch from the top of the pan. On the top of the soil was placed a predetermined number of seeds or vegetative propagules of various plant species which were pressed into the soil surface. The soil required to level fill the pans after seeding or adding vegetative propagules was weighed into a pan. A known amount of the active ingredient applied in a solvent or as a wettable powder and the soil were thoroughly mixed, and used as a cover layer for prepared pans.
(§3) The herbicidal rating was obtained by means of a fixed scale based on the percent injury of each plant species. The ratings are defined as follows: […]

Hemp Sesbania = assay: Pre-emergent herbicidal test; details: 2 WAT
Protocol: as §1, §2, §3

Panicum Spp. = assay: Pre-emergent herbicidal test; details: 2 WAT
Protocol: as §1, §2, §3

Rice = assay: Pre-emergent herbicidal test; details: 2 WAT
Protocol: as §1, §2, §3

Sorghum = assay: Pre-emergent herbicidal test; details: 2 WAT
Protocol: as §1, §2, §3

Soybean = assay: Pre-emergent herbicidal test; details: 2 WAT
Protocol: as §1, §2, §3

Sugarbeet = assay: Pre-emergent herbicidal test; details: 2 WAT
Protocol: as §1, §2, §3

Wheat = assay: Pre-emergent herbicidal test; details: 2 WAT
Protocol: as §1, §2, §3

Wild Buckwheat = assay: Pre-emergent herbicidal test; details: 2 WAT
Protocol: as §1, §2, §3

Barnyardgrass [1] = assay: Pre-emergent herbicidal test
Protocol: as §1, §2, §3
(§4) The compounds were also tested by utilizing the above procedure on the following plant species: […]

Canada Thistle [2] = assay: Pre-emergent herbicidal test; details: 11.2 kg/h
Protocol: as §1, §2, §3, §4

Cocklebur [3] = assay: Pre-emergent herbicidal test
Protocol: as §1, §2, §3, §4

Downy Brome [4] = assay: Pre-emergent herbicidal test
Protocol: as §1, §2, §3, §4

Johnsongrass [5] = assay: Pre-emergent herbicidal test; details: 11.2 kg/h
Protocol: as §1, §2, §3, §4

Lambsquarters [6] = assay: Pre-emergent herbicidal test
Protocol: as §1, §2, §3, §4

Morningglory [7] = assay: Pre-emergent herbicidal test
Protocol: as §1, §2, §3, §4

Quackgrass [8] = assay: Pre-emergent herbicidal test; details: 11.2 kg/h
Protocol: as §1, §2, §3, §4

Smartweed [9] = assay: Pre-emergent herbicidal test
Protocol: as §1, §2, §3, §4

Velvetleaf [10] = assay: Pre-emergent herbicidal test
Protocol: as §1, §2, §3, §4

Yellow Nutsedge [11] = assay: Pre-emergent herbicidal test; details: 11.2 kg/h
Protocol: as §1, §2, §3, §4

Barnyardgrass [12] = assay: Post-emergent herbicidal test; details: 4 WAT, 11.2 kg/h
Protocol: (§5) The post-emergent tests were conducted as follows:
(§6) The active ingredients are applied in spray form to two or three week old specimens of various plant species. The spray, a solution or wettable powder suspension containing the appropriate rate of active ingredient to give the desired test rate and a surfactant, is applied to the plants.
as §4

Canada Thistle [13] = assay: Post-emergent herbicidal test; details: 4 WAT, 11.2 kg/h
Protocol: as §5, §6, §4

Cocklebur [14] = assay: Post-emergent herbicidal test; details: 4 WAT, 11.2 kg/h
Protocol: as §5, §6, §4

Downy Brome [15] = assay: Post-emergent herbicidal test; details: 4 WAT, 11.2 kg/h
Protocol: as §5, §6, §4

Johnsongrass [16] = assay: Post-emergent herbicidal test; details: 4 WAT, 11.2 kg/h
Protocol: as §5, §6, §4

Lambsquarters [17] = assay: Post-emergent herbicidal test; details: 4 WAT, 11.2 kg/h
Protocol: as §5, §6, §4

Morningglory [18] = assay: Post-emergent herbicidal test; details: 4 WAT, 11.2 kg/h
Protocol: as §5, §6, §4

Quackgrass [19] = assay: Post-emergent herbicidal test; details: 4 WAT, 11.2 kg/h
Protocol: as §5, §6, §4

Smartweed [20] = assay: Post-emergent herbicidal test; details: 4 WAT, 11.2 kg/h
Protocol: as §5, §6, §4

Velvetleaf [21] = assay: Post-emergent herbicidal test; details: 4 WAT, 11.2 kg/h
Protocol: as §5, §6, §4

Yellow Nutsedge [22] = assay: Post-emergent herbicidal test; details: 4 WAT, 11.2 kg/h
Protocol: as §5, §6, §4
Note: ranges in brackets are in %.

Compound: CCCCOC(=O)c1ccccc1-c1cc(-c2cccc(C(F)(F)F)c2)no1 [Example 6, n-Butyl 2-[3-[3-(Trifluoromethyl)Phenyl]-5-Isoxazolyl]Benzoate]
- herbicidal rating (Crabgrass; 0.28 kg/h): 3 (75-100)
- herbicidal rating (Crabgrass; 1.12 kg/h): 2 (50-74)
- herbicidal rating (Crabgrass; 5.60 kg/h): 3 (75-100)
- herbicidal rating (Hemp Sesbania; 0.28 kg/h): 1 (25-49)
- herbicidal rating (Hemp Sesbania; 1.12 kg/h): 3 (75-100)
- herbicidal rating (Hemp Sesbania; 5.60 kg/h): 2 (50-74)
- herbicidal rating (Panicum Spp.; 0.28 kg/h): 3 (75-100)
- herbicidal rating (Panicum Spp.; 1.12 kg/h): 1 (25-49)
- herbicidal rating (Panicum Spp.; 5.60 kg/h): 2 (50-74)
- herbicidal rating (Rice; 0.28 kg/h): 2 (50-74)
- herbicidal rating (Rice; 1.12 kg/h): 3 (75-100)
- herbicidal rating (Rice; 5.60 kg/h): 3 (75-100)
- herbicidal rating (Sorghum; 0.28 kg/h): 0 (0-24)
- herbicidal rating (Sorghum; 1.12 kg/h): 1 (25-49)
- herbicidal rating (Sorghum; 5.60 kg/h): 3 (75-100)
- herbicidal rating (Soybean; 0.28 kg/h): 0 (0-24)
- herbicidal rating (Soybean; 1.12 kg/h): 1 (25-49)
- herbicidal rating (Soybean; 5.60 kg/h): 3 (75-100)
- herbicidal rating (Sugarbeet; 0.28 kg/h): 1 (25-49)
- herbicidal rating (Sugarbeet; 1.12 kg/h): 2 (50-74)
- herbicidal rating (Sugarbeet; 5.60 kg/h): 2 (50-74)
- herbicidal rating (Wheat; 0.28 kg/h): 0 (0-24)
- herbicidal rating (Wheat; 1.12 kg/h): 1 (25-49)
- herbicidal rating (Wheat; 5.60 kg/h): 1 (25-49)
- herbicidal rating (Wild Buckwheat; 0.28 kg/h): 3 (75-100)
- herbicidal rating (Wild Buckwheat; 1.12 kg/h): 2 (50-74)
- herbicidal rating (Wild Buckwheat; 5.60 kg/h): 3 (75-100)
- herbicidal rating (Barnyardgrass [1]; 2 WAT, 0.28 kg/h): 3 (75-100)
- herbicidal rating (Barnyardgrass [1]; 2 WAT, 1.12 kg/h): 3 (75-100)
- herbicidal rating (Barnyardgrass [1]; 2 WAT, 5.60 kg/h): 3 (75-100)
- herbicidal rating (Barnyardgrass [1]; 4 WAT, 11.2 kg/h): 3 (75-100)
- herbicidal rating (Canada Thistle [2]; 4 WAT): 3 (75-100)
- herbicidal rating (Cocklebur [3]; 2 WAT, 0.28 kg/h): 0 (0-24)
- herbicidal rating (Cocklebur [3]; 2 WAT, 1.12 kg/h): 0 (0-24)
- herbicidal rating (Cocklebur [3]; 2 WAT, 5.60 kg/h): 1 (25-49)
- herbicidal rating (Cocklebur [3]; 4 WAT, 11.2 kg/h): 1 (25-49)
- herbicidal rating (Downy Brome [4]; 2 WAT, 0.28 kg/h): 2 (50-74)
- herbicidal rating (Downy Brome [4]; 2 WAT, 1.12 kg/h): 1 (25-49)
- herbicidal rating (Downy Brome [4]; 2 WAT, 5.60 kg/h): 3 (75-100)
- herbicidal rating (Downy Brome [4]; 4 WAT, 11.2 kg/h): 3 (75-100)
- herbicidal rating (Johnsongrass [5]; 4 WAT): 0 (0-24)
- herbicidal rating (Lambsquarters [6]; 2 WAT, 0.28 kg/h): 3 (75-100)
- herbicidal rating (Lambsquarters [6]; 2 WAT, 1.12 kg/h): 3 (75-100)
- herbicidal rating (Lambsquarters [6]; 2 WAT, 5.60 kg/h): 3 (75-100)
- herbicidal rating (Lambsquarters [6]; 4 WAT, 11.2 kg/h): 2 (50-74)
- herbicidal rating (Morningglory [7]; 2 WAT, 0.28 kg/h): 1 (25-49)
- herbicidal rating (Morningglory [7]; 2 WAT, 1.12 kg/h): 1 (25-49)
- herbicidal rating (Morningglory [7]; 2 WAT, 5.60 kg/h): 3 (75-100)
- herbicidal rating (Morningglory [7]; 4 WAT, 11.2 kg/h): 3 (75-100)
- herbicidal rating (Quackgrass [8]; 4 WAT): 2 (50-74)
- herbicidal rating (Smartweed [9]; 2 WAT, 0.28 kg/h): 3 (75-100)
- herbicidal rating (Smartweed [9]; 2 WAT, 1.12 kg/h): 3 (75-100)
- herbicidal rating (Smartweed [9]; 2 WAT, 5.60 kg/h): 3 (75-100)
- herbicidal rating (Smartweed [9]; 4 WAT, 11.2 kg/h): 3 (75-100)
- herbicidal rating (Velvetleaf [10]; 2 WAT, 0.28 kg/h): 0 (0-24)
- herbicidal rating (Velvetleaf [10]; 2 WAT, 1.12 kg/h): 0 (0-24)
- herbicidal rating (Velvetleaf [10]; 2 WAT, 5.60 kg/h): 2 (50-74)
- herbicidal rating (Velvetleaf [10]; 4 WAT, 11.2 kg/h): 1 (25-49)
- herbicidal rating (Yellow Nutsedge [11]; 4 WAT): 1 (25-49)
- herbicidal rating (Barnyardgrass [12]): 2 (50-74)
- herbicidal rating (Canada Thistle [13]): 2 (50-74)
- herbicidal rating (Cocklebur [14]): 1 (25-49)
- herbicidal rating (Downy Brome [15]): 0 (0-24)
- herbicidal rating (Johnsongrass [16]): 1 (25-49)
- herbicidal rating (Lambsquarters [17]): 1 (25-49)
- herbicidal rating (Morningglory [18]): 2 (50-74)
- herbicidal rating (Quackgrass [19]): 1 (25-49)
- herbicidal rating (Smartweed [20]): 2 (50-74)
- herbicidal rating (Velvetleaf [21]): 1 (25-49)
- herbicidal rating (Yellow Nutsedge [22]): 0 (0-24)

Compound: CC(C)OC(=O)c1ccccc1-c1cc(-c2cccc(C(F)(F)F)c2)no1 [Example 8, Isopropyl 2-[3-[3-(Trifluoromethyl)Phenyl]-5-Isoxazolyl]Benzoate]
- herbicidal rating (Barnyardgrass [1]; 2 WAT, 11.2 kg/h): 0 (0-24)
- herbicidal rating (Canada Thistle [2]; 2 WAT): 0 (0-24)
- herbicidal rating (Cocklebur [3]; 2 WAT, 11.2 kg/h): 0 (0-24)
- herbicidal rating (Downy Brome [4]; 2 WAT, 11.2 kg/h): 0 (0-24)
- herbicidal rating (Johnsongrass [5]; 2 WAT): 0 (0-24)
- herbicidal rating (Lambsquarters [6]; 2 WAT, 11.2 kg/h): 3 (75-100)
- herbicidal rating (Morningglory [7]; 2 WAT, 11.2 kg/h): 0 (0-24)
- herbicidal rating (Quackgrass [8]; 2 WAT): 1 (25-49)
- herbicidal rating (Smartweed [9]; 2 WAT, 11.2 kg/h): 0 (0-24)
- herbicidal rating (Velvetleaf [10]; 2 WAT, 11.2 kg/h): 0 (0-24)
- herbicidal rating (Yellow Nutsedge [11]; 2 WAT): 0 (0-24)
- herbicidal rating (Barnyardgrass [12]): 1 (25-49)
- herbicidal rating (Canada Thistle [13]): 0 (0-24)
- herbicidal rating (Cocklebur [14]): 1 (25-49)
- herbicidal rating (Downy Brome [15]): 0 (0-24)
- herbicidal rating (Johnsongrass [16]): 0 (0-24)
- herbicidal rating (Lambsquarters [17]): 2 (50-74)
- herbicidal rating (Morningglory [18]): 2 (50-74)
- herbicidal rating (Quackgrass [19]): 0 (0-24)
- herbicidal rating (Smartweed [20]): 1 (25-49)
- herbicidal rating (Velvetleaf [21]): 0 (0-24)
- herbicidal rating (Yellow Nutsedge [22]): 0 (0-24)
